Results as given in PubChem BioAssay (NCI).
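Each compound was tested at five concentrations against cells in 96-well plates for 48 hours. Here, GI50 denotes the concentration required for 50% inhibition of growth. Definition used: TGI = concentration required for complete inhibition of growth.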

Tests used:
Test in all cases: DTP human tumour cell line panel, 48 h
MCF7 breast = test system: MCF7 breast
OVCAR-8 ovarian = test system: OVCAR-8 ovarian
COLO 205 colon = test system: COLO 205 colon
DU-145 prostate = test system: DU-145 prostate
ACHN renal = test system: ACHN renal
SK-MEL-2 melanoma = test system: SK-MEL-2 melanoma
SK-OV-3 ovarian = test system: SK-OV-3 ovarian
CCRF-CEM leukemia = test system: CCRF-CEM leukemia
HS 578T breast = test system: HS 578T breast
SF-295 CNS = test system: SF-295 CNS
NCI-H23 lung = test system: NCI-H23 lung
SR leukemia = test system: SR leukemia
U251 CNS = test system: U251 CNS
SF-268 CNS = test system: SF-268 CNS
NCI-H226 lung = test system: NCI-H226 lung
A549 NSCLC = test system: A549 NSCLC
NCI-H522 lung = test system: NCI-H522 lung
UACC-257 melanoma = test system: UACC-257 melanoma
HCT-15 colon = test system: HCT-15 colon
M14 melanoma = test system: M14 melanoma
TK-10 renal = test system: TK-10 renal
HL-60(TB) leukemia = test system: HL-60(TB) leukemia
NCI-H460 lung = test system: NCI-H460 lung
SW-620 colon = test system: SW-620 colon
CAKI-1 renal = test system: CAKI-1 renal
SK-MEL-28 melanoma = test system: SK-MEL-28 melanoma
EKVX NSCLC = test system: EKVX NSCLC
MOLT-4 leukemia = test system: MOLT-4 leukemia
SN12C renal = test system: SN12C renal
SF-539 CNS = test system: SF-539 CNS
MDA-MB-435 = test system: MDA-MB-435
HT29 colon = test system: HT29 colon
OVCAR-5 ovarian = test system: OVCAR-5 ovarian
HOP-92 NSCLC = test system: HOP-92 NSCLC
BT-549 breast = test system: BT-549 breast
UACC-62 melanoma = test system: UACC-62 melanoma
KM12 colon = test system: KM12 colon
UO-31 renal = test system: UO-31 renal
OVCAR-4 ovarian = test system: OVCAR-4 ovarian
K-562 leukemia = test system: K-562 leukemia
T-47D breast = test system: T-47D breast
MDA-MB-231 breast = test system: MDA-MB-231 breast
NCI/ADR-RES ovarian = test system: NCI/ADR-RES ovarian
OVCAR-3 ovarian = test system: OVCAR-3 ovarian
HOP-62 NSCLC = test system: HOP-62 NSCLC
MALME-3M melanoma = test system: MALME-3M melanoma
PC-3 prostate = test system: PC-3 prostate
HCT-116 colon = test system: HCT-116 colon
SNB-75 CNS = test system: SNB-75 CNS
RPMI-8226 leukemia = test system: RPMI-8226 leukemia
HCC-2998 colon = test system: HCC-2998 colon
LOX IMVI melanoma = test system: LOX IMVI melanoma
SNB-19 CNS = test system: SNB-19 CNS
786-0 renal = test system: 786-0 renal
RXF 393 renal = test system: RXF 393 renal
IGROV1 ovarian = test system: IGROV1 ovarian
A498 renal = test system: A498 renal
SK-MEL-5 melanoma = test system: SK-MEL-5 melanoma

## Cc1cc2nc3c4cccc(O)c4n(CCN(C)C)c3nc2cc1C
MCF7 breast
  GI50: 1.36 µM
  TGI: 5.08 µM
OVCAR-8 ovarian
  GI50: 1.83 µM
  TGI: 10.3 µM
COLO 205 colon
  GI50: 3.89 µM
  TGI: 19.4 µM
DU-145 prostate
  GI50: 2.96 µM
  TGI: 8.79 µM
ACHN renal
  GI50: 1.09 µM
  TGI: 3.18 µM
SK-MEL-2 melanoma
  GI50: 1.93 µM
  TGI: 4.22 µM
SK-OV-3 ovarian
  GI50: 3.04 µM
  TGI: 14.6 µM
CCRF-CEM leukemia
  GI50: 1.57 µM
  TGI: 6.25 µM
HS 578T breast
  GI50: 3.32 µM
  TGI: 31.8 µM
SF-295 CNS
  GI50: 3.58 µM
  TGI: 14 µM
NCI-H23 lung
  GI50: 3.07 µM
  TGI: 16 µM
SR leukemia
  GI50: 0.767 µM
  TGI: 7.03 µM
U251 CNS
  GI50: 2.05 µM
  TGI: 7.72 µM
SF-268 CNS
  GI50: 4.23 µM
  TGI: 27.6 µM
NCI-H226 lung
  GI50: 3.72 µM
  TGI: 52.9 µM
A549 NSCLC
  GI50: 1.41 µM
  TGI: 12.5 µM
NCI-H522 lung
  GI50: 2.15 µM
  TGI: 6.49 µM
UACC-257 melanoma
  GI50: 2 µM
  TGI: 4.58 µM
HCT-15 colon
  GI50: 1.29 µM
  TGI: 3.79 µM
M14 melanoma
  GI50: 1.63 µM
  TGI: 3.43 µM
TK-10 renal
  GI50: 4.37 µM
  TGI: 19.8 µM
HL-60(TB) leukemia
  GI50: 1.57 µM
  TGI: 4.13 µM
NCI-H460 lung
  GI50: 0.818 µM
  TGI: 6.13 µM
SW-620 colon
  GI50: 1.53 µM
  TGI: 8.08 µM
CAKI-1 renal
  GI50: 1.35 µM
  TGI: 3.89 µM
SK-MEL-28 melanoma
  GI50: 1.78 µM
  TGI: 3.34 µM
EKVX NSCLC
  GI50: 2.89 µM
  TGI: 17.7 µM
MOLT-4 leukemia
  GI50: 0.443 µM
  TGI: 8.98 µM
SN12C renal
  GI50: 2.28 µM
  TGI: 13.8 µM
SF-539 CNS
  GI50: 1.51 µM
  TGI: 3.23 µM
MDA-MB-435
  GI50: 1.65 µM
  TGI: 3.12 µM
HT29 colon
  GI50: 2.81 µM
  TGI: 20 µM
OVCAR-5 ovarian
  GI50: 2.97 µM
  TGI: 9.1 µM
HOP-92 NSCLC
  GI50: 1.57 µM
  TGI: 7.58 µM
BT-549 breast
  GI50: 5.38 µM
  TGI: 32.8 µM
UACC-62 melanoma
  GI50: 1.73 µM
  TGI: 3.73 µM
KM12 colon
  GI50: 1.65 µM
  TGI: 4.17 µM
UO-31 renal
  GI50: 0.86 µM
  TGI: 3.28 µM
OVCAR-4 ovarian
  GI50: 2.89 µM
  TGI: 11.9 µM
K-562 leukemia
  GI50: 1.24 µM
  TGI: 4.77 µM
T-47D breast
  GI50: 3.8 µM
  TGI: 27.9 µM
MDA-MB-231 breast
  GI50: 2.04 µM
  TGI: 5.63 µM
NCI/ADR-RES ovarian
  GI50: 1.97 µM
  TGI: 11.4 µM
OVCAR-3 ovarian
  GI50: 3.11 µM
  TGI: 15.7 µM
HOP-62 NSCLC
  GI50: 1.88 µM
  TGI: 7.53 µM
MALME-3M melanoma
  GI50: 1.64 µM
  TGI: 3.42 µM
PC-3 prostate
  GI50: 1.88 µM
  TGI: 12.8 µM
HCT-116 colon
  GI50: 1.49 µM
  TGI: 7.97 µM
SNB-75 CNS
  GI50: 1.18 µM
  TGI: 11.1 µM
RPMI-8226 leukemia
  GI50: 1.36 µM
  TGI: 4.62 µM
HCC-2998 colon
  GI50: 1.46 µM
  TGI: 2.99 µM
LOX IMVI melanoma
  GI50: 1.24 µM
  TGI: 2.6 µM
SNB-19 CNS
  GI50: 2.62 µM
  TGI: 26.3 µM
786-0 renal
  GI50: 3.88 µM
  TGI: 21.1 µM
RXF 393 renal
  GI50: 2.48 µM
  TGI: 8.98 µM
IGROV1 ovarian
  GI50: 1.32 µM
  TGI: 10.8 µM
A498 renal
  GI50: 2.09 µM
  TGI: 9.08 µM
SK-MEL-5 melanoma
  GI50: 1.67 µM
  TGI: 3.08 µM
